How the values were obtained:
rckGL (recombinant ckGL) = biological target: T1, rckGL (recombinant ckGL) (Parachlorella kessleri, UniProt A0A2Z5TTR4); experiment: free fatty acid release (NEFA C kit, A550), nonlinear regression; format: biochemical; details: pH 6.5 MES-NaOH, 37 °C, 2 mM CaCl2, 0.3% (w/v) Triton X-100; substrate is an acyl-chain mixture; read-out: apparent Km
T1 construct: gene chGL; His-tag and trigger factor cut off with factor Xa; ~53 kDa
T1 sequence (A0A2Z5TTR4 61-535): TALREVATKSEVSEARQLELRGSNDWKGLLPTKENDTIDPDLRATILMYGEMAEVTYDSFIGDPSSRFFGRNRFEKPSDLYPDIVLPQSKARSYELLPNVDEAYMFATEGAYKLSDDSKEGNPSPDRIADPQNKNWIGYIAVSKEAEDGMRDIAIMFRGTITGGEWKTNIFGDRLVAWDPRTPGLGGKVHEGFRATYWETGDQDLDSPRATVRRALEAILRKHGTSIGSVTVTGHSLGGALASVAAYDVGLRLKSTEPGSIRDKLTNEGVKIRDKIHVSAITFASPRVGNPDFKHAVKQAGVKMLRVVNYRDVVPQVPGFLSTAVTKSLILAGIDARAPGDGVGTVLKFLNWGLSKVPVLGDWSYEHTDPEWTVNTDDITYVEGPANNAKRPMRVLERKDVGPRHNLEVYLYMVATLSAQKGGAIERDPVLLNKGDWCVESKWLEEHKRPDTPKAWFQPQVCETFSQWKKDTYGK

[1] = biological target: T2, ckGL (purified native galactolipase) (Parachlorella kessleri, UniProt A0A2Z5TTR4); experiment: free fatty acid release (NEFA C kit, A550), Lineweaver-Burk linear regression; format: biochemical; details: pH 6.5 MES-NaOH, 37 °C, 2 mM CaCl2, 0.3% (w/v) Triton X-100; substrate is an acyl-chain mixture; read-out: apparent Km
T2 construct: gene chGL; native, purified from C. kessleri cells; N-terminus TALREVATKSEVSEA; ~53 kDa; in Triton X-100
T2 sequence (A0A2Z5TTR4 61-535): T1 sequence (A0A2Z5TTR4 61-535)

1,2-diacyl-3-O-(α-D-galactosyl1-6)-β-D-galactosyl-sn-glycerol [DGDG]
Km (rckGL (recombinant ckGL)): 540 ± 110 µM | Km [1]: 1050 ± 480 µM

Reference: publication PMC5794828, “A novel galactolipase from a green microalga Chlorella kessleri: purification, characterization, molecular cloning, and heterologous expression” (Applied Microbiology and Biotechnology, 2018)
